These results are taken from PMC8881610 (Nature Communications, 2022).

Test in all cases: cAMP accumulation assay (LANCE Ultra cAMP kit), GIPR WT, mutant or modified constructs
Common to all, as to format: cell-based
Parameters in all cases: acylated tirzepatide to the full-length or modified; Flag; expressed in transfected cells; host or cells: HEK293T
Background: Changes in cAMP serve as a functional read-out for many G protein-coupled receptors.

Assay [1] addresses T1, GIPR (Homo sapiens, UniProt P48546, Q285A).
T1 sequence (P48546 22-466 Q285A): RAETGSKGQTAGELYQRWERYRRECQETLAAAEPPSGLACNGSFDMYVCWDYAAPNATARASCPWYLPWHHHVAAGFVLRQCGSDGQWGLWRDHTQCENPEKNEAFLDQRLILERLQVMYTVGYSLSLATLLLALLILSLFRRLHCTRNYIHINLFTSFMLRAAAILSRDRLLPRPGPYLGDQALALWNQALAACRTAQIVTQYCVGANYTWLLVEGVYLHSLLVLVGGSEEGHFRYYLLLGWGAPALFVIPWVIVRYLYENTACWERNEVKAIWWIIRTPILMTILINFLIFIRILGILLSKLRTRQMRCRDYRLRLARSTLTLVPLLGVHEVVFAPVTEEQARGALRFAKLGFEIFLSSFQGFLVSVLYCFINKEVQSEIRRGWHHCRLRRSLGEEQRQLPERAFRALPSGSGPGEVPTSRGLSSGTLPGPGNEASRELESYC
Conditions: GIPR Q285A, HEK293T. Summed up:
(§1)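 HEK293T cells transiently transfected with human GIPR WT or mutant constructs (pcDNA3.1), used after 24 h. The cells were stimulated with peptide agonists for 40 min at RT in HBSS with 5 mM HEPES, 0.1% BSA or casein, and 0.5 mM IBMX. cAMP was read by LANCE Ultra TR-FRET (Eu-cAMP tracer/ULight anti-cAMP, 1 h RT, 620/650 nm).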

For assay [2], the target named is T2, GIPR (Homo sapiens, UniProt P48546, R370A).
T2 sequence (P48546 22-466 R370A): T1 sequence (P48546 22-466 Q285A) with A264Q, R349A
Conditions: HEK-293T, GIPR R370A; HEK293T. Summed up: as §1

For assay [3], the target named is T3, GIPR (Homo sapiens, UniProt P48546, W209A).
T3 sequence (P48546 22-466 W209A): T1 sequence (P48546 22-466 Q285A) with W188A, A264Q
Conditions: GIPR W209A, HEK293T. The method, boiled down: as §1

The mark [4] stands for this setting: read-out: cAMP pEC50 (converted).

Residue numbers refer to the chain shown, from its start.

For the compound `CCCCCCCCCCCCCCCC(=O)N[C@@H](CCC(=O)NCCCC[C@H](NC(=O)[C@H](CC(=O)O)NC(=O)[C@H](CO)NC(=O)[C@@H](NC(=O)[C@H](Cc1ccccc1)NC(=O)[C@@H](NC(=O)CNC(=O)[C@H](CCC(N)=O)NC(=O)C(C)(C)NC(=O)[C@@H](N)Cc1c[nH]cn1)[C@@H](C)O)[C@@H](C)O)C(=O)N[C@@H](CO)C(=O)N[C@@H](CCCCN)C(=O)N[C@@H](Cc1ccc(O)cc1)C(=O)N[C@@H](CC(C)C)C(=O)N[C@@H](CC(=O)O)C(=O)N[C@@H](CCC(=O)O)C(=O)N[C@@H](CCCNC(=N)N)C(=O)N[C@@H](C)C(=O)N[C@@H](C)C(=O)N[C@@H](CCC(N)=O)C(=O)N[C@@H](CC(=O)O)C(=O)N[C@@H](Cc1ccccc1)C(=O)N[C@H](C(=O)N[C@@H](CCC(N)=O)C(=O)N[C@@H](Cc1c[nH]c2ccccc12)C(=O)N[C@@H](CC(C)C)C(=O)N[C@@H](CC(C)C)C(=O)N[C@@H](CC(=O)O)C(=O)NCC(=O)NCC(=O)N1CCC[C@H]1C(=O)N[C@@H](CO)C(=O)N[C@@H](CO)C(=O)NCC(=O)N[C@@H](C)C(=O)N1CCC[C@H]1C(=O)N1CCC[C@H]1C(=O)N1CCC[C@H]1C(=O)N[C@@H](CO)C(N)=O)C(C)C)C(=O)O` [Peptide 20], the EC50 is 0.0417 nM in assay [1] (setting [4]) and 0.00363 nM in assay [3] (setting [4]). Also, the maximal effect (Emax) is 97.6 ± 1.37% in assay [1] (HEK-293T), 71.5 ± 2.85% in assay [2] and 100 ± 1.45% in assay [3] (HEK-293T).

The Emax is the maximal effect, on the per cent scale that the assay sets.
